pIC50: −log10 of the molar value. Entries after “also recorded” stand apart in the source; their conditions may differ.
How the values were obtained:
[1] = system: cytochrome b5 reductase (Cytb5R); assay: Hepatotoxicity: specific activity of cytochrome b5 reductase; type: in vivo, swiss albino mice; conditions: 50 mg/kg orally, two weeks
Protocol: (§1) Hepatotoxicity is considered to be one of the major challenges for drug development schemes. The liver is the primary organ for the metabolism or biotransformation of a given drug. To assess the hepatotoxicity of these compounds, the effects of Fisetin and analogue 3c on various hepatic enzymes was assessed.
(§2) A lipid peroxidation assay was performed on microsomal liver fraction and determined in terms of TBARS formation. […] The modulatory effects of Fisetin and analogue 3c were determined on the specific activities of cytochrome b5 reductase (Cytb5R) and cytochrome P450 reductase (CytP450R), phase I enzyme of xenobiotic metabolism. Fisetin and analogue 3c caused reduction in the specific activity of cytochrome b5 reductase. Fisetin decreased Cytb5R specific activity by 66% whereas analogue 3c (50 mg/kg) caused a 36% reduction in specific activity (FIG. 7F). An increase in specific activity of CytP450R by Fisetin and analogue 3c was observed. Fisetin and analogue 3c (50 mg/kg) increased the specific activity by 15% and 13%, respectively (FIG. 7G). Next, the specific activities of phase II enzymes, glutathione S-transferase (GST) and reduced glutathione (GSH) were measured. […] Fisetin and analogue 3c (50 mg/kg) caused a decrease in specific activity of GSH by 34% and 7%, respectively (FIG. 7I). […] These analogues are therefore likely to be effective and safe phytochemicals.

[2] = system: H1299 human lung cancer cells; assay: Cell cycle distribution, propidium iodide flow cytometry; type: cell-based; conditions: H1299, 48 h
Protocol: To examine the effect of Fisetin analogues on cell cycle regulation, cells were treated with different concentrations of Fisetin analogues (5, 10 & 20 μM) for 48 h, then stained with propidium iodide and subjected to flow cytometry. All three of the tested Fisetin analogues induced G2/M phase cell cycle arrest in A549 (FIGS. 5A-5C) and H1299 human lung cancer cells (FIGS. 5D-5F).

[3] = system: A549 lung cancer cell line; assay: MTT cell proliferation assay, cytotoxicity after 48 h treatment; type: cell-based, human
Protocol: These 4′-substituted Fisetin analogues were initially screened for cytotoxicity against the A549 lung cancer cell line following a 48 h treatment period. Cytotoxicity IC50's were quantified using the MTT cell proliferation assay. The compounds were not found to interfere with the assay by causing an increase in background absorbance, no correlation was found between the lipophilicity and cytotoxicity at this position, and the substituent size was also not found to be important.

[4] = system: glutathione S-transferase (GST); assay: Hepatotoxicity: specific activity of glutathione S-transferase; type: in vivo, swiss albino mice; conditions: liver of treated mice
Protocol: as §1, §2

H1299 cells = assay: Western blot of signalling, cell cycle and apoptosis markers; type: cell-based, human
Description: Similarly, in H1299 cells analogue 3a induced a 11.7 to 14.9% cell death (FIG. 4D right) compared to 3.8% in control cells. Analogue 3c (FIG. 4E right) and analogue 3e (FIG. 4F right) induced cell death of 8.2 to 15.1% and 8.8 to 16.6% respectively. For western blot experiments, two concentrations were used, i.e. the IC50 concentration and the next higher concentration utilized for cell proliferation for each cell line.
In H1299 cells (FIG. 4H), the higher concentrations of all three Fisetin analogues decreased the expression of pErk1/2. […]
The decreased expression of these proteins explains the decreased cell proliferation in both A549 and H1299 cells. […] Consistent with A549 data, all three the Fisetin analogues decreased the expression of anti-apoptotic protein Bcl-2 at both the concentrations. In H1299 cells, all the analogues increased cleaved Caspase-3 compared to control untreated cells. Thus, modulation of apoptosis regulatory proteins has caused apoptosis in both A549 and H1299 cells by the tested Fisetin analogues.

[5] = system: lipid peroxidation (MDA formation); assay: Hepatotoxicity: lipid peroxidation assay on microsomal liver fraction (TBARS); type: in vivo, swiss albino mice; conditions: microsomal liver fraction of treated mice
Protocol: as §1, §2

A549 cells = assay: Trypan blue cell exclusion assay, cell proliferation and death; type: cell-based; conditions: Homo sapiens, A549, 48 h, read-out: IC50 concentration
Protocol: (§3) To evaluate the effect of Fisetin analogues 3a, 3c and 3e on cell proliferation and death of human lung cancer cells, trypan blue cell exclusion assays were performed. A549 and H1299 cancer cells were treated with different concentrations of three selected Fisetin analogues for 48 h. The Fisetin analogues decreased the viability of cells and caused cell death in both the cell lines in a concentration dependent fashion. A549 and H1299 cells were treated with 5, 10 and 20 μM of Fisetin analogues for 48 h. All three analogues decreased cell proliferation and induced cell death.

H1299 lung cancer cells = assay: as above; type: cell-based; conditions: Homo sapiens, NCI-H1299, H1299, 48 h, read-out: IC50 concentration
Protocol: as §3

[6] = system: reduced glutathione (GSH); assay: Hepatotoxicity: reduced glutathione; type: in vivo, swiss albino mice; conditions: 50 mg/kg orally, two weeks
Protocol: as §1, §2

[7] = system: B(a)P-induced lung carcinogenesis; assay: B(a)P-induced lung carcinogenesis, Initiation and Promotion Protocols; type: in vivo, Swiss albino mice
Description: To assess whether Fisetin and its 4-bromo-Fisetin analogue (Fisetin analogue 3c) have anticarcinogenesis activity and if any toxicity in terms of water and food consumption, and body weight, Benzo[a]pyrene [B(a)P] induced lung carcinogenesis in Swiss albino mice were employed in the study. Along with the antitumor activity of the agents, the body weight, food and water intake in different treatment groups were monitored on regular intervals and analysed.
There were six different treatment groups in the study including, (1) control, (2) B(a)P, (3) Fisetin+B(a)P, (4) Fisetin analogue 3c+B(a)P, (5) B(a)P+Fisetin and (6) B(a)P+Fisetin analogue 3c.
Groups 3 and 4 represent the Initiation Protocol (agents treatment started 1 week before carcinogen treatment and continued 1 week after the last dose of the carcinogen). Groups 5 and 6 represent the Promotion Protocol (agents treatment started after 3 weeks of the carcinogen treatment). The B(a)P was given orally twice a week for 4 weeks at 50 mg/kg body weight dose, whereas Fisetin and Fisetin analogue (3c) were administered orally at 25 mg/kg body weight thrice weekly (see FIG. 9).

[8] = system: cytochrome P450 reductase (CytP450R); assay: Hepatotoxicity: specific activity of cytochrome P450 reductase; type: in vivo, swiss albino mice; conditions: 50 mg/kg orally, two weeks
Protocol: as §1, §2

O=c1c(O)c(-c2ccc(Br)cc2)oc2cc(O)ccc12 [analogue 3c, 4′-Bromo-3,7-dihydroxyflavone]
reduction in specific activity of cytochrome b5 reductase [1]: 36%
G2/M phase arrest ([2]; 5 μM): induced cell cycle arrest
G2/M phase arrest ([2]; 10 & 20 μM): induced G2/M phase arrest in both the cell lines significantly
cytotoxicity, in words ([3]; A549, MTT, 48 h): particularly active
activity against lung cancer cell lines compared with the parent Fisetin ([3]; A549 and/or H1299): substantially more active
specific activities of GST compared to the control group [4]: did not cause significant change
Phospho-Cdc-2 expression (H1299 cells; IC50 concentration and 10 μM): higher concentration of analogue 3c and both concentrations of analogue 3e decreased the expression of phospho-Cdc-2
Total Cdc-2 (H1299 cells; IC50 concentration and 10 μM): marginally affected by higher concentration
expression of Bax (H1299 cells; IC50 concentration and 10 μM): increased the expression of pro-apoptotic protein Bax
expression of Cyclin B1 (H1299 cells; IC50 concentration and 10 μM): decreased in all treatments, except for the lower concentration of analogue 3c
expression of phospho Akt (H1299 cells; IC50 concentration and 10 μM): completely undetected
expression of phospho-EGFR (H1299 cells; IC50 concentration and 10 μM): decreased the expression of both phospho and total EGFR
expression of total Akt (H1299 cells; IC50 concentration and 10 μM): completely undetected
expression of total EGFR (H1299 cells; IC50 concentration and 10 μM): decreased the expression of both phospho and total EGFR
expression of total Erk1/2 (H1299 cells; IC50 concentration and 10 μM): decreased the expression of total Erk1/2 significantly
expression of total Stat-3 (H1299 cells; higher concentration (10 μM)): decreased the expression of total Stat-3 at higher concentrations
MDA formation (TBARS) [5]: No significant change
pIC50 (A549 cells): 4.92
pIC50 (H1299 lung cancer cells): 5.27
decrease in specific activity of GSH [6]: 7%
systemic toxicity during long-term application ([7]; 25 mg/kg orally thrice weekly): did not show any systemic toxicity
tumorigenic features in lung histology (nucleus size, cytoplasmic content, alveoli) ([7]; 25 mg/kg orally thrice weekly): reversal of the tumorigenic features
tumor incidence, histopathology of H&E stained serial sections ([7]; compared to the carcinogen treated group): less
decrease of area or size of lesions ([7]; initiation group): approximately 50%
efficacy in inhibiting B(a)P induced lung carcinogenesis, in words ([7]; mouse model): efficacious; also recorded: more effective in reducing the number as well as the size of the lung tumor lesions as compared to the parent compound Fisetin
decrease of area or size of lesions ([7]; promotion group): more than 50%
reduction of total number of lesions ([7]; tumor initiation group): approximately 50%
surface tumor lesion incidence, gross observation of lung ([7]; tumor initiation phase, B(a)P-only group 100% incidence): only one mouse showed surface tumor lesion out of five
tumor lesions per mouse and total number of lesions per group, in words ([7]; versus B(a)P group): strongly reduced
increase in specific activity of CytP450R [8]: 13%
